Data taken from patent US20250320471A1, “Method for Producing Compounds, Method for Producing Compound Library, Compound Library, and Screening Method” (The University of Tokyo, priority 2021, published 2025).
Values joined by “and” are separate entries in the source; they are usually repeats but may differ in a detail not shown here. Identical values can stand only once. Ends that are not written are not given here. Peptide text beside a SMILES is read from it.

How the values were obtained:
PirF = settings: Tyr C10 O-prenylation; cited from earlier work
LimF [1] = test: His-prenylation of low molecular weight compounds, peptides and proteins by LimF; type: biochemical, Limnothrix sp. CACIAM 69d; settings: 100 μM LimF, 2 mM GPP, 20 hours; for His-prenylation efficiency (LC/MS): standard conditions
Description: Next, various low molecular weight compounds, peptides, and proteins, including various compounds that have already been approved as pharmaceuticals, were subjected to His-prenylation facilitated by LimF.

LimF [2] = test: Steady-state kinetics of prenylation facilitated by LimF (wild type); type: biochemical, Limnothrix sp. CACIAM 69d; settings: Tyr-prenylation (C10 O-), 5 μM LimF, 16° C.
Protocol: Under optimal conditions, the steady-state kinetic parameters of the prenylation reaction of bcLimE2 facilitated by LimF were measured by the methods described below.
The concentration dependence of GPP and MgCl2 in bcLimE2 prenylation reactions facilitated by LimF was measured in reaction systems containing 1 μM LimF, 1 mM or a suitably modified concentration of GPP, 50 mM HEPES pH 7.2, 0.4 mM substrate, 1 mM DTT, and 40 mM or a suitably modified concentration of MgCl2. A reaction solution containing components other than GPP was prepared and preheated to 25° C., and the reaction was then started by adding GPP. After incubating at 25° C., the reaction was stopped at each point and analyzed by LC-MS. Next, the initial rate was calculated as the slope of increase in the amount of prenylation product produced in the linear region. Three separate reactions were carried out under each condition and the mean and standard deviation of the results were used for the analysis.
For GPP concentration dependence and peptide substrate concentration dependence, the kinetic parameters were estimated by fitting the initial rate and GPP substrate concentration or peptide substrate concentration to the Michaelis-Menten model in Graphpad Prism 8.4.2 (GraphPad Prism Software Inc., San Diego, California) software.
Kinetic parameters of the His-prenylation reaction facilitated by LimF were determined based on reactions under optimal conditions using substrates of different concentrations. For the Tyr-prenylation described below, the kinetic parameters were measured under the same conditions except that LimF was set to 5 μM and the reaction temperature was set to 16° C. In order to estimate the kinetic parameters, the initial rate and substrate concentration were fitted to the Michaelis-Menten model in Graphpad Prism 8.4.2 software.
In order to further evaluate the two different prenylation modes by LimF, two teMPs (teR6-H5A/Y7H and teR6-H5A) that undergo efficient His-prenylation and Tyr-prenylation, respectively, were designed and chemically synthesized. Kinetic analysis was carried out according to the above method using these peptides.

Fnq26 = molecular target: T1, Fnq26 (Streptomyces virginiae, UniProt A2AXG5); settings: Aromatic C10 O-prenylation; cited from earlier work
T1 sequence (A2AXG5 1-300): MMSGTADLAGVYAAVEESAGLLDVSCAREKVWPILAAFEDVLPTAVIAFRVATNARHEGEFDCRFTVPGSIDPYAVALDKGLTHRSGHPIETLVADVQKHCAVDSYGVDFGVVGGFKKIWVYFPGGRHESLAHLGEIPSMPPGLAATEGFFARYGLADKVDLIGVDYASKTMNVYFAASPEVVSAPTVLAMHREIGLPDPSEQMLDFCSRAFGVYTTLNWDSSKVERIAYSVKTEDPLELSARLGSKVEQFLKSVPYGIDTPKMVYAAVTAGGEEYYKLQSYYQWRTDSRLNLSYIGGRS

PagF = settings: Tyr C5 O-prenylation; cited from earlier work
bcLimE2 = test: Prenyl group donor tolerance of LimF variants (conversion of bcLimE2); type: biochemical; parameters: key to Final Conversion Efficiency: “n.r.” indicates that the reaction did not proceed; settings: substrate bcLimE2
Protocol: An attempt was made to change the selectivity of LimF with respect to prenyl group donors examined in “2. Evaluation of Enzymatic Activity of LimF” by introducing a mutation into LimF. […], illustrated in FIG. 7(a), was used as the substrate.
For the assay of LimF variants, 100 μM bcLimE2 was incubated individually at a 5 μL scale with 20 to 100 μM LimF variants under conditions of 1 mM GPP or DMAPP, 50 mM HEPES (pH 7.2), 40 mM MgCl2, 1 mM DTT, and DMSO (4%, v/v). After incubating for 16 hours at 25° C., the reaction was stopped by adding 9 times the amount (45 μL) of a 1% TFA aqueous solution. Next, the mixture was incubated on ice for 10 minutes, a precipitate was separated by centrifugation at 4° C. (15300×g, 10 minutes), and 1 μL of supernatant was subjected to LC-MS analysis.
An amino acid forming a small pocket that stores a prenyl group in the crystal structure was selected for the introduction site of the LimF mutation. Specifically, Gly at position 224 was selected, and this was substituted with a larger amino acid. […] This alignment supports the hypothesis that the 224th Gly contributes to prenyl group selectivity.
For the assay of LimF variants, 100 μM bcLimE2 was incubated individually at a […] with 20 to 100 μM LimF variants under conditions of 1 mM GPP or FPP, 50 mM HEPES (pH 7.2), 5 mM MgCl2, 1 mM DTT, and DMSO (4%, v/v). After incubating for 16 hours at 25° C., the reaction was stopped by adding 9 times the amount ([…]) of a 1% TFA aqueous solution. Next, the mixture was incubated on ice for 10 minutes, a precipitate was separated by centrifugation at 4° C. (15300×g, 10 minutes), and 1 μL of supernatant was subjected to LC-MS analysis.
An amino acid forming a small pocket that stores a prenyl group in the crystal structure was selected for the introduction site of the LimF mutation. Specifically, the amino acids at the positions described in the table in the left column of FIG. 19 were replaced with relatively small Ala.
Therefore, substitution of amino acids other than Ala with respect to the W273 position was comprehensively performed (middle column of FIG. 19). As a result, The mutation for W273N and W273T are focused, and in addition to the W273N mutation and the W273T mutation, simultaneous substitution with various amino acids was performed for His at 239, which is an amino acid adjacent to position 273 (right column of FIG. 19).

Molecule: MSGVDYYNPFAGDDAE
- Kcat (PirF): 0.0183 s⁻¹
- Km (PirF): 118 µM

Molecule: cyclo[MSGVDYYNP] (head-to-tail cyclized)
- Kcat (PirF): 0.0117 s⁻¹
- Km (PirF): 116 µM

Molecule: Teduglutide (HGDGSFSDEMNTILDNLAARDFINWLIQTKITD; chains of the INN, looked up)
- prenylation of His residue or imidazole C2 carbon by LimF (in words) (LimF [1]): very high efficiency
- His-prenylation efficiency (LC/MS) (LimF [1]; 125 μM substrate): 50%

Molecule: tecyclo[wAVSNLPPRPHITYIEC]S [PBm1]
- prenylation of His residue or imidazole C2 carbon by LimF (in words) (LimF [1]): very high efficiency
- His-prenylation efficiency (LC/MS) (LimF [1]; 500 μM substrate): 99%

Molecule: CCCC[C@H](NC(C)=O)C(=O)N[C@H]1CC(=O)NCCCC[C@@H](C(=O)O)NC(=O)[C@H](Cc2c[nH]c3ccccc23)NC(=O)[C@H](CCCN=C(N)N)NC(=O)[C@@H](Cc2ccccc2)NC(=O)[C@H](Cc2cnc[nH]2)NC1=O [Bremelanotide, Ac-Nle-Asp(1)-His-D-Phe-Arg-Trp-Lys(1)-OH]
- His-prenylation efficiency (LC/MS) (LimF [1]; 500 μM substrate): 1%

Molecule: Trp-His-Trp-Leu-Gln-Leu-Lys-Pro-Gly-Gln-Pro-Met-Tyr-OH (WHWLQLKPGQPMY-OH) [α-mating factor, cell signaling peptide for yeast]
- His-prenylation efficiency (LC/MS) (LimF [1]; 500 μM substrate): 39%

Molecule: tecyclo[DFRGNATYIPC] [teR6-H5A]
- Kcat (LimF [2]): 0.0167 s⁻¹ and 0.0167 ± 0.0017 s⁻¹
- Km (LimF [2]): 7300 ± 1800 µM
- Kcat (LimF [2]; listed as tecyclo[DFRGNATYIPC]): 0.0167 s⁻¹

Molecule: CCNC(=O)[C@@H]1CCCN1C(=O)[C@H](CCCNC(=N)N)NC(=O)[C@H](CC(C)C)NC(=O)[C@@H](Cc1cn(Cc2ccccc2)cn1)NC(=O)[C@H](Cc1ccc(O)cc1)NC(=O)[C@H](CO)NC(=O)[C@H](Cc1c[nH]c2ccccc12)NC(=O)[C@H](Cc1cnc[nH]1)NC(=O)[C@@H]1CCC(=O)N1 [Histrelin, H-Pyr-His-Trp-Ser-Tyr-D-His(1-Bn)-Leu-Arg-Pro-NHEt]
- prenylation of His residue or imidazole C2 carbon by LimF (in words) (LimF [1]): very high efficiency
- His-prenylation efficiency (LC/MS) (LimF [1]; 500 μM substrate): 99%

Molecule: H-Pyr-His-Trp-Ser-Tyr-D-Leu-Leu-Arg-Pro-NHEt [Leoprorelin]
- prenylation of His residue or imidazole C2 carbon by LimF (in words) (LimF [1]): very high efficiency
- His-prenylation efficiency (LC/MS) (LimF [1]; 500 μM substrate): 99%

Molecule: Aviptadil: synthetic vasoactive intestinal polypeptide (HSDAVFTDNYTRLRKQMAVKKYLNSILN; Aviptadil)
- His-prenylation efficiency (LC/MS) (LimF [1]; 125 μM substrate): about 90%
- His-prenylation efficiency (LC/MS) (LimF [1]; 125 μM substrate, listed as Avipt ?): 90%

Molecule: H-Asp-Arg-Val-Tyr-Ile-His-Pro-Phe-OH [ANGIOTENSIN II]
- His-prenylation efficiency (LC/MS) (LimF [1]; 500 μM substrate): 1%

Molecule: NC(=O)[C@@H]1CCCN1C(=O)[C@H](Cc1cnc[nH]1)NC(=O)[C@@H]1CCC(=O)N1 [TRH]
- His-prenylation efficiency (LC/MS) (LimF [1]; 500 μM substrate): 15%

Molecule: Insulin
- His-prenylation efficiency (LC/MS) (LimF [1]; 500 μM substrate): 5%

Molecule: Pramlintide: analog of amylin (KCNTATCATQRLANFLVHSSNNFGPILPPTNVGSNTY; Pramlintide)
- prenylation of His residue or imidazole C2 carbon by LimF (in words) (LimF [1]): very high efficiency
- His-prenylation efficiency (LC/MS) (LimF [1]; 125 μM substrate): 99%

Molecule: O=C(O)c1ccc(O)cc1 [4-hydroxy-benzoate]
- Kcat (Fnq26): 0.00233 s⁻¹
- Km (Fnq26): 5600 µM

Molecule: Cyclo(-Ser-Asn-Leu-Ser-Thr-Asu)-Val-Leu-Gly-Lys-Leu-Ser-Gln-Glu-Leu-His-Lys-Leu-Gln-Thr-Tyr-Pro-Arg-Thr-Asp-Val-Gly-Ala-Gly-Thr-Pro-NH2 [Elcatonin]
- His-prenylation efficiency (LC/MS) (LimF [1]; 125 μM substrate): 5%

Molecule: O=C1C(O)=CC(=O)c2c(O)cc(O)cc21 [flaviolin]
- Kcat (Fnq26): 0.000217 s⁻¹
- Km (Fnq26): 21 µM

Molecule: N[C@@H](Cc1ccc(O)cc1)C(=O)N[C@@H](Cc1ccc(O)cc1)C(=O)N[C@@H](Cc1ccc(O)cc1)C(=O)O [YYY] (H-Tyr-Tyr-Tyr-OH)
- Kcat (PagF): 0.0967 s⁻¹
- Km (PagF): 160 µM

Molecule: CN/C(=N\C#N)NCCSCc1nc[nH]c1C [Cimetidine, cimetidine]
- prenylation of His residue or imidazole C2 carbon by LimF (in words) (LimF [1]): very high efficiency
- His-prenylation efficiency (LC/MS) (LimF [1]; 500 μM substrate): 97%

B1: wt-LimF: prenyltransferase derived from Limnothrix sp. CACIAM 69d, SEQ ID NO: 1 (protein, listed as Limnothrix sp.)
chain: MKKRKSSKVFKSTIAPEEKLRYIGNHKQAFDIEPLYPLALFEEFVATTGDCIIECSGKIKQDQLYPARIDLQFSDKHHFHNIHTSIDFLKRAASRTDVNLNLDILATFLAGNFDYSKVQNILAGIDLRQNLGESKLKLFIRIGDYPAKMAVAKHLCNITPESEAMLRSDTLHIGFDFYLDGRSAIELYPELKKDEFNHPFIYNQLKTILSPEALKPLPLCNLFGIGLSPANEANVLYYHLENIEDFLSYFPINDTARRVHDFYLQQEGSRRMWVALSESEMKAGRINNVNLYYSKAFTSQNP
modifications: CACIAM 69d
- Final Conversion Efficiency (bcLimE2; prenyl group donor DMAPP): n.r.
- Final Conversion Efficiency (bcLimE2; prenyl group donor FPP): 0.0027%
- Final Conversion Efficiency (bcLimE2; prenyl group donor GGPP): n.r.
- Final Conversion Efficiency (bcLimE2; prenyl group donor GPP): >99%
